From US5705524A, “Thiepane compounds” (Gilead Sciences, Inc., priority 1995, dated 1998) come the findings set out here.

Each structure is given as a SMILES string. Like-named read-outs stand apart in the source and are kept apart here. Some results are limits rather than exact numbers.

For one test, the target named is T1, HIV protease (Human immunodeficiency virus type 1 group M subtype B, UniProt P04585).
T1 construct: measurement of HIV-protease (HIV-PR) activity
The test can be described thus: biochemical. As for the experimental part: Compositions to be subjected to enzyme assay are lyophilited and diluted in DMSO to 100-1000 μM. Compositions having apparent IC50 <1 μm are diluted to 100 μM.
The assay is a fluorometric method for measurement of HIV-protease (HIV-PR) activity utilizing a synthetic peptide substrate for HIV-PR based on that described by Matayoshi, E. D.; Wang, G. T.; Krafft, G. A.; and Erickson, J. W.; Science, 1990, 247, 954-958; and Wang, G. T.; Huffker, J. A.; Matayoshi, E.; and Krafft, G. A.; Tetrahedron Lett., 1990, 165, 6493-6496.
1.0 mM ethylenediaminetetraacetic acid (EDTA)
1.0 mM dithiothreitol (DTT)
10% dimethyl sulfoxide (DMSO)
1 mg/mL bovine serum albumin (BSA) adjusted to pH 4.7
1. Prepare a solution of 2 μM HIV Protease Substrate 1 in the Assay Buffer.
2. Dispense the substrate solution into UV-pass fluorescence cuvettes (1 cm pathlength).
3. Set the excitation and emission monochromators of the spectrofluorimeter to 340 nm and 490 nm, respectively. To obtain the same kinetic constants as reported, cuvettes should be held at 37° C. throughout the assay.
4. Begin each assay by adding a small amount (<3% of the final volume) of HIV-PR-containing solution diluted tin the Assay Buffer.
5. Measure the initial rate of cleavage of fluorogenic substrate by monitoring the increase in fluorescence signal at 490 nm for 5-8 min at 37° C.
(§1) The apparent IC50 and IC50 values reported below in Table 25 were determined using the assays of Example 34 and 35, respectively. The values are indicated as follows: +=10-50 μM, ++2-10 μM, and +++<2 μM.

A further test has as its system HIV IIIB. The test can be described thus: XTT Cell Culture Assay, cells infected with HIV IIIB (Example 35). The format is cell-based. To be noted: read-out: Cell Culture IC50. As for the experimental part:
The method of Weislow, O. S.; Kiser, R.; Fine, D. L.; Bader, J.; Shoemaker, R. H.; and Boyd, M. R.; J. Nat. Cancer Institute, 1989, 81(8) 577-586 was applied with the following minor modifications: Infection of cells with HIV IIIB was performed without polybrene. Cells were distributed to Microtiter wells containing the compound of the invention 4 h after infection with HIV IIIB. 2×XTT was added at 5-6 days post infection. 20 μl 2% Triton X-100 was added 1 hour after XTT addition.
1. Add 4 ml of XTT (5 mg/ml) to 8 ml of Deficient RPMI medium (no phenol red, no serum). Mix briefly at 45° C. to dissolve XTT.
2. Add 800 μl of PMS (0.2 mg/ml) to XTT/RPMI mixture.
3. Remove 100 μl of cell free media from each well of a 96 well plate and replace with 100 μl of the XTT/PMS mixture.
4. Incubate at 37° C. for 1.5-2 h.
5. Read absorbance at 450 nm. Absorbance values are directly proportional to cell viability.
as §1

Where [1] appears, read: fluorogenic peptide substrate, 37° C., pH 4.7, read-out: Apparent Enzyme IC50.
Setting [2] is: Human immunodeficiency virus 1, IIIB, HIV IIIB infected cells, XTT at 5-6 days post infection.
Where [3] appears, read: HIV IIIB infected cells, XTT at 5-6 days post infection.
Setting [4] is: Apparent Enzyme IC50, fluorogenic peptide substrate, 37° C., pH 4.7.
Where [5] appears, read: Human immunodeficiency virus 1, IIIB.

Usually IC50 stands for the concentration needed to halve the response being measured. Take `[O-][S@+]1C[C@H](OCc2ccccc2)[C@H](O)[C@@H](O)[C@@H](OCc2ccccc2)[C@H]1Cc1ccccc1` [107/3]: on HIV protease (setting [1]), the half-maximal inhibitory concentration (IC50) is 2 to 10 µM. On the same count and under the same terms, the value for `O=S1(=O)[C@H](Cc2ccccc2)[C@H](OCc2ccncc2)[C@H](O)[C@@H](O)[C@@H](OCc2ccncc2)[C@H]1Cc1ccccc1` [120/19] was < 2 µM. For `O=S1(=O)[C@H](Cc2ccccc2)[C@H](OCc2cncs2)[C@H](O)[C@@H](O)[C@@H](OCc2cncs2)[C@H]1Cc1ccccc1` [120/25], the IC50 at HIV protease (read-out: Apparent Enzyme IC50) and with HIV IIIB (setting [2]) was < 2 µM in each case. Turning to `Cc1cccc(CO[C@@H]2[C@H](O)[C@@H](O)[C@@H](OCc3cccc(C)c3)[C@@H](Cc3ccccc3)S(=O)(=O)[C@@H]2Cc2ccccc2)c1` [120/31], the IC50 on HIV protease (setting [1]) and in the test with HIV IIIB (setting [2]) was < 2 µM throughout. For the compound `O=S1(=O)[C@H](Cc2ccccc2)[C@H](OCc2ccccc2)[C@H](O)[C@@H](O)[C@@H](OCc2ccccc2)[C@H]1Cc1ccccc1` [108/5], in the test on HIV IIIB (setting [2]), the half-inhibitory concentration (IC50) was < 2 µM.

`O=S1(=O)[C@H](Cc2ccccc2)[C@H](OCc2cccc(OCc3ccccc3)c2)[C@H](O)[C@@H](O)[C@@H](OCc2cccc(OCc3ccccc3)c2)[C@H]1Cc1ccccc1` [120/40]: the concentration for half-maximal inhibition (IC50) at HIV protease (setting [1]) was < 2 µM. On the same count and under the same terms, for `N#Cc1ccc(O[C@@H]2[C@H](O)[C@@H](O)[C@@H](Oc3ccc(C#N)cc3)CS(=O)(=O)[C@@H]2Cc2ccccc2)cc1` [107/15] the value was 2 to 10 µM; for `O=S1(=O)[C@H](Cc2ccccc2)[C@H](OCc2cccc(Br)c2)[C@H](O)[C@@H](O)[C@@H](OCc2cccc(Br)c2)[C@H]1Cc1ccccc1` [120/37], < 2 µM. On to `[O-][S@@+]1[C@H](Cc2ccccc2)[C@H](OCc2ccccc2)[C@H](O)[C@@H](O)[C@@H](OCc2ccccc2)[C@@H]1Cc1ccccc1` [108/17], for which the IC50 at HIV protease (setting [1]) and with HIV IIIB (setting [2]) was 2 to 10 µM throughout. Turning to `[O-][S+]1[C@H](Cc2ccccc2)[C@H](OCc2ccccc2)[C@H](O)[C@@H](O)[C@@H](OCc2ccccc2)[C@H]1Cc1ccccc1` (stereo partly shown) [120/3], the figures for the IC50 at HIV protease (setting [1]) and in the test with HIV IIIB (setting [3]) were < 2 µM and 10 to 50 µM, respectively.

For `O=S1(=O)[C@@H](Cc2ccccc2)[C@@H](OCc2ccccc2)[C@@H](O)[C@H](O)[C@H](OCc2ccccc2)[C@@H]1Cc1ccccc1` [108/27], the IC50 on HIV protease (setting [1]) and in the test on HIV IIIB (setting [2]) was 10 to 50 µM throughout. Regarding `O=[N+]([O-])c1cccc(CO[C@@H]2[C@H](O)[C@@H](O)[C@@H](OCc3cccc([N+](=O)[O-])c3)[C@@H](Cc3ccccc3)[S+]([O-])[C@@H]2Cc2ccccc2)c1` (stereo partly shown) [120/44], the IC50 on HIV protease (setting [4]) and with HIV IIIB (setting [5]) was < 2 µM in each case. On to `Cc1nc(CO[C@@H]2[C@H](O)[C@@H](O)[C@@H](OCc3csc(C)n3)[C@@H](Cc3ccccc3)S(=O)(=O)[C@@H]2Cc2ccccc2)cs1` [120/22], for which the 50% inhibitory concentration (IC50) at HIV protease (setting [1]) is < 2 µM; with HIV IIIB (setting [2]), 10 to 50 µM. In the same order, the values of `[O-][S@@+]1C[C@H](OCc2ccccc2)[C@H](O)[C@@H](O)[C@@H](OCc2ccccc2)[C@H]1Cc1ccccc1` [107/4] are 2 to 10 µM and 10 to 50 µM. As for `O=[N+]([O-])c1cccc(CO[C@@H]2[C@H](O)[C@@H](O)[C@@H](OCc3cccc([N+](=O)[O-])c3)[C@@H](Cc3ccccc3)S(=O)(=O)[C@@H]2Cc2ccccc2)c1` [120/45], the IC50 at HIV protease (setting [4]) and in the test with HIV IIIB (setting [5]) was < 2 µM in each case. As to `O=S1(=O)[C@H](Cc2ccccc2)[C@H](OCc2cccc(O)c2)[C@H](O)[C@@H](O)[C@@H](OCc2cccc(O)c2)[C@H]1Cc1ccccc1` [120/41], the IC50 on HIV protease (setting [1]) was < 2 µM. Consider `O=S1(=O)[C@H](Cc2ccccc2)[C@H](OCc2ccccc2)[C@H](O)[C@@H](O)[C@@H](OCc2ccccc2)[C@@H]1Cc1ccccc1` [108/18], for which the concentration for half-maximal inhibition (IC50) on HIV protease (setting [1]) was < 2 µM; in the test with HIV IIIB (setting [2]), 10 to 50 µM. Consider `O=S1(=O)C[C@H](OCc2ccccc2)[C@H](O)[C@@H](O)[C@@H](OCc2ccccc2)[C@H]1Cc1ccccc1` [107/5], for which the figures for the IC50 on HIV protease (setting [1]) and in the test on HIV IIIB (setting [2]) were < 2 µM and 10 to 50 µM, respectively. Turning to `Nc1cccc(CO[C@@H]2[C@H](O)[C@@H](O)[C@@H](OCc3cccc(N)c3)[C@@H](Cc3ccccc3)S(=O)(=O)[C@@H]2Cc2ccccc2)c1` [120/46], the IC50 on HIV protease (setting [1]) and in the test with HIV IIIB (setting [2]) was < 2 µM throughout. With `N#Cc1ccc(O[C@@H]2[C@H](O)[C@@H](O)[C@@H](Oc3ccc(C#N)cc3)CS[C@@H]2Cc2ccccc2)cc1` [107/12], the IC50 at HIV protease (setting [1]) was 2 to 10 µM. Take `O=S1(=O)[C@H](Cc2ccccc2)[C@H](Oc2ccccn2)[C@H](O)[C@@H](O)[C@@H](Oc2ccccn2)[C@H]1Cc1ccccc1` [120/28]: the IC50 at HIV protease (setting [1]) is < 2 µM. On to `COc1cccc(CO[C@@H]2[C@H](O)[C@@H](O)[C@@H](OCc3cccc(OC)c3)[C@@H](Cc3ccccc3)S(=O)(=O)[C@@H]2Cc2ccccc2)c1` [120/34], for which the IC50 on HIV protease (setting [1]) and in the test on HIV IIIB (setting [2]) was < 2 µM throughout.

Consider `[O-][S+]1[C@H](Cc2ccccc2)[C@H](OCc2ccccc2)[C@H](O)[C@@H](O)[C@@H](OCc2ccccc2)[C@H]1Cc1ccccc1` (stereo partly shown) [108/4], for which the IC50 at HIV protease (setting [1]) and with HIV IIIB (setting [3]) was < 2 µM in each case. On to `CC1(C)O[C@@H]2[C@@H](O1)[C@@H](OCc1cccc[n+]1[O-])[C@@H](Cc1ccccc1)S(=O)(=O)[C@H](Cc1ccccc1)[C@@H]2OCc1ccccn1` [120/7], for which the IC50 on HIV protease (setting [1]) was < 2 µM; in the test with HIV IIIB (setting [2]), 2 to 10 µM. In the same order, the values of `O=S1(=O)[C@H](Cc2ccccc2)[C@H](OCc2cccnc2)[C@H](O)[C@@H](O)[C@@H](OCc2cccnc2)[C@H]1Cc1ccccc1` [120/15] are < 2 µM and < 2 µM. `O[C@@H]1[C@@H](O)[C@@H](OCc2ccccc2)CS[C@H](Cc2ccccc2)[C@@H]1OCc1ccccc1` [107/2]: at HIV protease (setting [1]), the IC50 lay within 10 to 50 µM.

As for `N#Cc1ccccc1O[C@@H]1[C@H](O)[C@@H](O)[C@@H](Oc2ccccc2C#N)CS(=O)(=O)[C@@H]1Cc1ccccc1` [107/10], the IC50 on HIV protease (setting [1]) was 2 to 10 µM.

As to `O=S1(=O)[C@H](Cc2ccccc2)[C@H](OCc2ccccc2)[C@H](O)[C@@H](O)[C@H](OCc2ccccc2)[C@H]1Cc1ccccc1` [108/21], the IC50 on HIV protease (setting [1]) and with HIV IIIB (setting [2]) was < 2 µM in each case. In the case of `CC1(C)O[C@@H]2[C@@H](O1)[C@@H](OCc1ccccn1)[C@@H](Cc1ccccc1)S(=O)(=O)[C@H](Cc1ccccc1)[C@@H]2OCc1ccccn1` [120/6], the half-maximal inhibitory concentration (IC50) is < 2 µM on HIV protease (setting [1]) and 2 to 10 µM in the test with HIV IIIB (setting [2]). In the same order, the values of `O=S1(=O)[C@H](Cc2ccccc2)[C@H](OCc2cccnc2)[C@H](O)[C@@H](O)[C@@H](OCc2ccc[n+]([O-])c2)[C@H]1Cc1ccccc1` [120/16] are < 2 µM and < 2 µM.
